pKi: −log10 of the molar value. Activity calls are given as the source filed them. The rule behind the calls is not given here.
Legend:
[1] = Cmax in Sprague-Dawley rat at 10 mg/kg, po measured up to 24 hrs by LC-MS-MS analysis; assay type: ADME, organism-based; parameters: route oral, dose 10 mg/kg, time <=24; conditions: in vivo
[2] = Half life in Sprague-Dawley rat at 10 mg/kg, po measured up to 24 hrs by LC-MS-MS analysis; assay type: ADME, organism-based; conditions: in vivo
[3] = AUC(0 to 24 hrs) in Sprague-Dawley rat at 10 mg/kg, po measured up to 24 hrs by LC-MS-MS analysis; assay type: ADME, organism-based; parameters: route oral, dose 10 mg/kg, time <=24; conditions: in vivo
[4] = Clearance in Sprague-Dawley rat at 2 mg/kg, iv measured up to 24 hrs by LC-MS-MS analysis; assay type: ADME, organism-based; conditions: in vivo
[5] = Volume of distribution at steady state in Sprague-Dawley rat at 2 mg/kg, iv measured up to 24 hrs by LC-MS-MS analysis; assay type: ADME, organism-based; conditions: in vivo, read-out: Vdss
[6] = Half life in Sprague-Dawley rat at 2 mg/kg, iv measured up to 24 hrs by LC-MS-MS analysis; assay type: ADME, organism-based; conditions: in vivo
[7] = Oral bioavailability in Sprague-Dawley rat at 10 mg/kg measured up to 24 hrs by LC-MS-MS analysis; assay type: ADME, organism-based; conditions: in vivo
[8] = AUClast in Sprague-Dawley rat at 10 mg/kg, po measured up to 7 hrs by LC-MS-MS analysis; assay type: ADME, organism-based; parameters: route oral, dose 10 mg/kg, time <=7; conditions: in vivo
[9] = Cmax in Sprague-Dawley rat at 10 mg/kg, po measured up to 7 hrs by LC-MS-MS analysis; assay type: ADME, organism-based; parameters: route oral, dose 10 mg/kg, time <=7; conditions: in vivo
[10] = target: T1, Prostaglandin E2 receptor EP3 subtype (Rattus norvegicus, UniProt P34980); assay: Binding affinity to rat EP3 receptor assessed as inhibition constant
T1 sequence (P34980 whole entry): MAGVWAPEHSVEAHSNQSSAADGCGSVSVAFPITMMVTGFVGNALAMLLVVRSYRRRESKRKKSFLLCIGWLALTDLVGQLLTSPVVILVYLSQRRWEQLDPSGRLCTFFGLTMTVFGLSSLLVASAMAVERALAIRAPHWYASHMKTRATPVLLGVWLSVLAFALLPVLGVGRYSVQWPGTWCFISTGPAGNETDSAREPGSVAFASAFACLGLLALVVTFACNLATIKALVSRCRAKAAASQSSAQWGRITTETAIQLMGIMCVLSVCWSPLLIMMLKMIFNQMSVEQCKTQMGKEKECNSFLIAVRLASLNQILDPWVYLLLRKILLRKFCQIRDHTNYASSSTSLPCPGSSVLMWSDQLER

[11] = target: T2, Prostaglandin E2 receptor EP1 subtype (Homo sapiens, UniProt P34995); assay: Binding affinity to human EP1 receptor assessed as inhibition constant
T2 sequence (P34995 whole entry): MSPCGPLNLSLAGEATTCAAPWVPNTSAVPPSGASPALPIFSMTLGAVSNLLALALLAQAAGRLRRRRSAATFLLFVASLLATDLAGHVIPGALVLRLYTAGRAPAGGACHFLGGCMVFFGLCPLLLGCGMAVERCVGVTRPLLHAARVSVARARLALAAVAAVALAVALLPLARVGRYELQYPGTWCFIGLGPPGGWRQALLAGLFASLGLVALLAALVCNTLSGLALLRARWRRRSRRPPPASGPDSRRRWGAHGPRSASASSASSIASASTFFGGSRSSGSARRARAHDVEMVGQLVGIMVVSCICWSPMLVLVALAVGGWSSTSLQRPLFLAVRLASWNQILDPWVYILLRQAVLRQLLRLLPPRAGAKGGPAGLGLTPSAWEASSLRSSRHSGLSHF

[12] = AUClast in Sprague-Dawley rat at 10 mg/kg, po measured up to 24 hrs by LC-MS-MS analysis; assay type: ADME, organism-based; parameters: route oral, dose 10 mg/kg, time <=24; conditions: in vivo
[13] = target: Prostaglandin E2 receptor EP2 subtype (Homo sapiens, UniProt P43116); assay: Binding affinity to human EP2 receptor assessed as inhibition constant
Sequence of Prostaglandin E2 receptor EP2 subtype (P43116 whole entry, the tested form may be a part): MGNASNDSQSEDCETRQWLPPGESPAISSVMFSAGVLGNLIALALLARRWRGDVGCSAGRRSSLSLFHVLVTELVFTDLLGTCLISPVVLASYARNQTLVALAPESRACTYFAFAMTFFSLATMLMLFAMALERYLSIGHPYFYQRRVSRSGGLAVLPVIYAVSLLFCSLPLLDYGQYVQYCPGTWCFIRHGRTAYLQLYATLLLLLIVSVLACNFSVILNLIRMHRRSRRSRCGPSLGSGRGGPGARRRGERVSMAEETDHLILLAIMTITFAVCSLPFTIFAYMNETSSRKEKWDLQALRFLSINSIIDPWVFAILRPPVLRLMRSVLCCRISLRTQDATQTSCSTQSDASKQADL

[14] = Free plasma concentration in Sprague-Dawley rat at 10 times Ki administered as iv infusion measured after 2 to 50 mins; assay type: ADME, organism-based; conditions: in vivo, time 2-50 min
[15] = target: Prostaglandin E2 receptor EP4 subtype (Homo sapiens, UniProt P35408); assay: Binding affinity to human EP4 receptor assessed as inhibition constant
Sequence of Prostaglandin E2 receptor EP4 subtype (P35408 whole entry, the tested form may be a part): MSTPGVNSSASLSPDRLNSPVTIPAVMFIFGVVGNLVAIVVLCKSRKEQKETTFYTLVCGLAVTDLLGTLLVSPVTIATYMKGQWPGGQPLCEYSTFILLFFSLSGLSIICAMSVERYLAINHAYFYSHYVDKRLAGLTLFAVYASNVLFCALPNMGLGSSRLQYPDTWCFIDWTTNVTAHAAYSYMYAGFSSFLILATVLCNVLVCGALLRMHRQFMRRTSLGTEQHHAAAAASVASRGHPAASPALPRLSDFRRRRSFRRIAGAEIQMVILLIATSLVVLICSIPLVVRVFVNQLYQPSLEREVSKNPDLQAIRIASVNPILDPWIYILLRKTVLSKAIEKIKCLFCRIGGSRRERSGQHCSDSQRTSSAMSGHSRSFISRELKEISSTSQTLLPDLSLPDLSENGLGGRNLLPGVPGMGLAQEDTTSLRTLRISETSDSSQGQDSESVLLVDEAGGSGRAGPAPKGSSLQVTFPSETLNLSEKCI

Rattus norvegicus = assay: In vivo antagonist activity at […] receptor in Sprague-Dawley rat assessed as reversal of sulprostone induced reduction in circulating insulin levels at 10 times Ki, administered as iv infusion measured up to 30 mins after glucose administration by glucose tolerance test; assay type: functional, organism-based; conditions: time min <=30

Row | Cmax [1] [nM] | half-life [2] [h] | AUC(0-t) [3] [µM·h] | clearance [4] [mL/min/kg] | Vd [5] [L/kg] | half-life [6] [h] | bioavailability [7] [%] | AUC(0-t) at 7 h [8] [µM·h] | Cmax [9] [nM] | SMILES | other results
1 | 750 | 3.6 | 7.43 | 21.3 | 4.61 | 3.5 | 46 | – | – | O=C(NS(=O)(=O)c1ccc(Cl)cc1)OC/C=C1\CCCc2cnn(Cc3ccc(Cl)cc3Cl)c21 | –
2 | 9950 | 3.2 | 96.2 | 1.66 | 0.491 | 5.9 | 55 | 57.8 | 11200 | Cc1cc(S(=O)(=O)NC(=O)NC/C(F)=C2\CCCc3cnn(Cc4ccc(Cl)cc4Cl)c32)sc1Cl | –
3 | – | – | – | – | – | – | – | 2.4 | 510 | Cc1ncc(S(=O)(=O)NC(=O)NC/C=C2\CCCc3cnn(Cc4ccc(Cl)cc4Cl)c32)s1 | –
4 | 9390 | 2.9 | 49 | 2.6 | 0.346 | 6.2 | 44 | 31.9 | 7100 | COc1ccc(S(=O)(=O)NC(=O)NC/C(F)=C2\CCCc3cnn(Cc4ccc(Cl)cc4Cl)c32)cc1Cl | –
5 | 1110 | 2.8 | 5.27 | 14.9 | 1.44 | 1.9 | 25 | – | – | O=C(NC/C=C1\CCCc2cnn(Cc3ccc(Cl)cc3Cl)c21)NS(=O)(=O)c1ccc(Cl)cc1 | pKi [10]: 8.44; pKi [11]: 5.46; AUC(0-t) at 24 h [12]: 5.27 µM·h; pKi [13]: < 5.00; Cp(f) [14]: 36 nM; pKi [15]: < 5.00; Activity (Rattus norvegicus): Active
6 | – | – | – | – | – | – | – | 10.8 | 4750 | COc1ccc(Cl)cc1S(=O)(=O)NC(=O)NC/C(F)=C1\CCCc2cnn(Cc3ccc(Cl)cc3Cl)c21 | –
7 | – | – | – | – | – | – | – | 0.73 | 130 | O=C(NC/C=C1\CCCc2cnn(C3CCN(c4ccc(F)cc4)CC3)c21)NS(=O)(=O)c1cc(Cl)c(Cl)s1 | –
8 | – | – | – | – | – | – | – | 3.68 | 700 | O=C(NC/C(F)=C1\CCCc2cnn(-c3ccc(C(F)(F)F)cc3)c21)NS(=O)(=O)c1cc(Cl)c(Cl)s1 | –
9 | 1670 | 2.8 | 2.75 | 81.2 | 2.21 | 0.79 | 84 | – | – | O=C(NC/C=C1\CCCc2cnn(Cc3ccc(Cl)cc3Cl)c21)NS(=O)(=O)c1cc(Cl)c(Cl)s1 | AUC(0-t) at 24 h [12]: 2.75 µM·h
10 | – | – | – | – | – | – | – | 7.39 | 1540 | O=C(NC/C=C1\CCCc2cnn(-c3ccc(C(F)(F)F)cc3)c21)NS(=O)(=O)c1cc(Cl)c(Cl)s1 | –
11 | 130 | 2.3 | 0.89 | 71.7 | 3.45 | 2.1 | 24 | – | – | O=C(NS(=O)(=O)c1cc(Cl)c(Cl)s1)OC/C=C1\CCCc2cnn(Cc3ccc(Cl)cc3Cl)c21 | –
12 | – | – | – | – | – | – | – | 16.6 | 3820 | O=C(NC/C(F)=C1\CCCc2cnn(Cc3ccc(Cl)cc3Cl)c21)NS(=O)(=O)c1cc(Cl)c(Cl)s1 | –

— ChEMBL document CHEMBL5029194, “Discovery and Optimization of 7-Alkylidenyltetrahydroindazole-Based Acylsulfonamide EP3 Antagonists” (ACS Med Chem Lett, 2022)
